The conditions of series [1]: high concentrations; cited from earlier work.
For series [2], the system named is liver cells. Put plainly: Exposure of organ cells to tagatose, ATP level. It is filed as cell-based. The conditions noted are these: exposure of organ cells such as liver cells to tagatose.
Series [3] has as its system organ, e.g., a liver. Put plainly: Removal and/or storage of organ in tagatose-containing organ storage solution (Examples 1-3). Set-up: species or system human. The conditions noted are these: tagatose solution containing about 0.36% by weight of tagatose, with nutrients and electrolytes. The source says:
After the organ, e.g., a liver is accessed by surgery on a human subject, three liters of chilled tagatose solution containing about 0.36% by weight of tagatose are used to flush the blood from it and to cool the organ while still on the body. The tagatose solution contains the amounts of nutrients and electrolytes common to present day storage solutions, such as Viaspan. […] The organ is then removed and placed into a chilled sterile container, holding more of the tagatose solution, for refrigerated storage until the transplant occurs. The ischemia time is shorter in this procedure than in Example 1. The donor organ is removed and perfused with tagatose solution containing about 0.36% by weight of tagatose that, again, contains the requisite nutrients and electrolytes. The organ is then placed into a sterile container that contains more of the same tagatose solution. That sterile container is placed into two more sterile containers and is then placed on ice for immediate transit to the organ recipient. The organ is removed as described in Example 1. It is flushed and perfused with tagatose solution, containing about 0.36% by weight of tagatose, and containing the requisite nutrients and electrolytes. The organ is placed in a sterile container with more of the same tagatose solution. Two protocols may be used for storage a. […]

Molecules are shown by their SMILES.

On to `CC(=O)N(O)CCCCCNC(=O)CCC(=O)N(O)CCCCCNC(=O)CCC(=O)N(O)CCCCCN` [deferoxamine], for which the toxicity result in series [1] is “toxic at high concentrations”. On to `O=C(CO)[C@@H](O)[C@@H](O)[C@H](O)CO` [tagatose], for which, in series [2], the “ATP in organ cells” value is given as “massively decreases ATP”. In addition, in series [3], the “reperfusion injury of the organ” value is recorded as “reduces reperfusion injury”.
